Source: PubChem BioAssay (NCI)
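Following 48 hours of exposure in 96-well plates, responses at five concentrations were used to interpolate endpoints linearly. The concentration for full growth arrest is given as TGI.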

Experiments:
Test in all cases: NCI tumour cell line growth inhibition, 48 h
LOX IMVI melanoma = test system: LOX IMVI melanoma
RPMI-8226 leukemia = test system: RPMI-8226 leukemia
SR leukemia = test system: SR leukemia
IGROV1 ovarian = test system: IGROV1 ovarian
SW-620 colon = test system: SW-620 colon
SK-MEL-5 melanoma = test system: SK-MEL-5 melanoma
ACHN renal = test system: ACHN renal
CCRF-CEM leukemia = test system: CCRF-CEM leukemia
M19-MEL melanoma = test system: M19-MEL melanoma
MALME-3M melanoma = test system: MALME-3M melanoma
NCI-H522 lung = test system: NCI-H522 lung
M14 melanoma = test system: M14 melanoma
HOP-62 NSCLC = test system: HOP-62 NSCLC
K-562 leukemia = test system: K-562 leukemia
U251 CNS = test system: U251 CNS
CAKI-1 renal = test system: CAKI-1 renal
NCI-H226 lung = test system: NCI-H226 lung
KM12 colon = test system: KM12 colon
KM20L2 colon = test system: KM20L2 colon
EKVX NSCLC = test system: EKVX NSCLC
HL-60(TB) leukemia = test system: HL-60(TB) leukemia
RXF 393 renal = test system: RXF 393 renal
DMS 273 small cell lung = test system: DMS 273 small cell lung
SK-MEL-28 melanoma = test system: SK-MEL-28 melanoma
HCT-15 colon = test system: HCT-15 colon
HOP-92 NSCLC = test system: HOP-92 NSCLC
MOLT-4 leukemia = test system: MOLT-4 leukemia
HCT-116 colon = test system: HCT-116 colon
SNB-19 CNS = test system: SNB-19 CNS
HOP-18 NSCLC = test system: HOP-18 NSCLC
XF 498 CNS = test system: XF 498 CNS
HCC-2998 colon = test system: HCC-2998 colon
SK-OV-3 ovarian = test system: SK-OV-3 ovarian
SNB-75 CNS = test system: SNB-75 CNS
UACC-257 melanoma = test system: UACC-257 melanoma
NCI-H460 lung = test system: NCI-H460 lung
UO-31 renal = test system: UO-31 renal
SNB-78 CNS = test system: SNB-78 CNS
OVCAR-5 ovarian = test system: OVCAR-5 ovarian
DMS 114 small cell lung = test system: DMS 114 small cell lung
NCI-H23 lung = test system: NCI-H23 lung
DLD-1 colon = test system: DLD-1 colon
SN12C renal = test system: SN12C renal
OVCAR-8 ovarian = test system: OVCAR-8 ovarian
TK-10 renal = test system: TK-10 renal
SF-539 CNS = test system: SF-539 CNS
LXFL 529 NSCLC = test system: LXFL 529 NSCLC
786-0 renal = test system: 786-0 renal
SF-295 CNS = test system: SF-295 CNS
OVCAR-4 ovarian = test system: OVCAR-4 ovarian
A549 NSCLC = test system: A549 NSCLC
HT29 colon = test system: HT29 colon
COLO 205 colon = test system: COLO 205 colon
UACC-62 melanoma = test system: UACC-62 melanoma
SF-268 CNS = test system: SF-268 CNS
OVCAR-3 ovarian = test system: OVCAR-3 ovarian

`C/C=C/C(=O)Oc1cccc2cccnc12` showed a TGI (LOX IMVI melanoma) greater than 84.6 µM, a TGI (RPMI-8226 leukemia) greater than 96.1 µM and a TGI (SR leukemia) greater than 100 µM. It also gave a TGI (IGROV1 ovarian) greater than 94.7 µM, a TGI (SW-620 colon) of 38.5 µM and a TGI (SK-MEL-5 melanoma) of 51 µM. The TGI (ACHN renal) was greater than 100 µM, the TGI (CCRF-CEM leukemia) was 31.7 µM and the TGI (M19-MEL melanoma) was 38.6 µM. For the same compound, the TGI (MALME-3M melanoma) was 8.94 µM, the TGI (NCI-H522 lung) was 5.15 µM and the TGI (M14 melanoma) was 12 µM. For the same compound, the TGI (HOP-62 NSCLC) was greater than 100 µM, the TGI (K-562 leukemia) was greater than 100 µM and the TGI (U251 CNS) was 12.9 µM. It also gave a TGI (CAKI-1 renal) of 93.8 µM, a TGI (NCI-H226 lung) of 68.6 µM and a TGI (KM12 colon) of 42.4 µM. For the same compound, the TGI (KM20L2 colon) was greater than 35.5 µM, the TGI (EKVX NSCLC) was greater than 81.3 µM and the TGI (HL-60(TB) leukemia) was greater than 33.8 µM. The TGI (RXF 393 renal) was 41.1 µM, the TGI (DMS 273 small cell lung) was 46.9 µM and the TGI (SK-MEL-28 melanoma) was 61.6 µM. The TGI (HCT-15 colon) was 33.4 µM, the TGI (HOP-92 NSCLC) was 57.9 µM and the TGI (MOLT-4 leukemia) was greater than 100 µM. For the same compound, the TGI (HCT-116 colon) was 18.1 µM, the TGI (SNB-19 CNS) was greater than 100 µM and the TGI (HOP-18 NSCLC) was greater than 100 µM. The TGI (XF 498 CNS) was 55.2 µM, the TGI (HCC-2998 colon) was 46.1 µM and the TGI (SK-OV-3 ovarian) was greater than 100 µM. The TGI (SNB-75 CNS) was greater than 75.6 µM, the TGI (UACC-257 melanoma) was 40.9 µM and the TGI (NCI-H460 lung) was 23 µM. For the same compound, the TGI (UO-31 renal) was greater than 84.7 µM, the TGI (SNB-78 CNS) was greater than 100 µM and the TGI (OVCAR-5 ovarian) was greater than 100 µM. For the same compound, the TGI (DMS 114 small cell lung) was 16.8 µM, the TGI (NCI-H23 lung) was 29 µM and the TGI (DLD-1 colon) was 21 µM. For the same compound, the TGI (SN12C renal) was greater than 78.2 µM, the TGI (OVCAR-8 ovarian) was 54.3 µM and the TGI (TK-10 renal) was greater than 100 µM. It also gave a TGI (SF-539 CNS) of 40.1 µM, a TGI (LXFL 529 NSCLC) greater than 100 µM and a TGI (786-0 renal) greater than 100 µM. The TGI (SF-295 CNS) was greater than 100 µM, the TGI (OVCAR-4 ovarian) was 22 µM and the TGI (A549 NSCLC) was greater than 100 µM. The TGI (HT29 colon) was 58 µM, the TGI (COLO 205 colon) was 35.9 µM and the TGI (UACC-62 melanoma) was greater than 39.5 µM. The TGI (SF-268 CNS) was 14.5 µM and the TGI (OVCAR-3 ovarian) was greater than 73.6 µM.
